In paper PMC6312236, “Functional characterization reveals that zebrafish CFTR prefers to occupy closed channel conformations” (PLoS ONE, 2018):

Experiments:
Assay in all cases: inside-out patch clamp, macroscopic current
Format in all cases: biochemical
[1] = molecular target: T1, WT-nzCFTR (native form of zebrafish CFTR) (Danio rerio, UniProt Q1LX78); details: 10 μM inhibitor, PKA-phosphorylated channel, pH 7.4, 22-24 °C
T1 construct: full-length wild type, native (not codon-optimized) cDNA from M. Bagnat lab, co-transfected with peGFP-C3 in CHO cells; PKA-phosphorylated in patches
T1 sequence (Q1LX78 1-1485): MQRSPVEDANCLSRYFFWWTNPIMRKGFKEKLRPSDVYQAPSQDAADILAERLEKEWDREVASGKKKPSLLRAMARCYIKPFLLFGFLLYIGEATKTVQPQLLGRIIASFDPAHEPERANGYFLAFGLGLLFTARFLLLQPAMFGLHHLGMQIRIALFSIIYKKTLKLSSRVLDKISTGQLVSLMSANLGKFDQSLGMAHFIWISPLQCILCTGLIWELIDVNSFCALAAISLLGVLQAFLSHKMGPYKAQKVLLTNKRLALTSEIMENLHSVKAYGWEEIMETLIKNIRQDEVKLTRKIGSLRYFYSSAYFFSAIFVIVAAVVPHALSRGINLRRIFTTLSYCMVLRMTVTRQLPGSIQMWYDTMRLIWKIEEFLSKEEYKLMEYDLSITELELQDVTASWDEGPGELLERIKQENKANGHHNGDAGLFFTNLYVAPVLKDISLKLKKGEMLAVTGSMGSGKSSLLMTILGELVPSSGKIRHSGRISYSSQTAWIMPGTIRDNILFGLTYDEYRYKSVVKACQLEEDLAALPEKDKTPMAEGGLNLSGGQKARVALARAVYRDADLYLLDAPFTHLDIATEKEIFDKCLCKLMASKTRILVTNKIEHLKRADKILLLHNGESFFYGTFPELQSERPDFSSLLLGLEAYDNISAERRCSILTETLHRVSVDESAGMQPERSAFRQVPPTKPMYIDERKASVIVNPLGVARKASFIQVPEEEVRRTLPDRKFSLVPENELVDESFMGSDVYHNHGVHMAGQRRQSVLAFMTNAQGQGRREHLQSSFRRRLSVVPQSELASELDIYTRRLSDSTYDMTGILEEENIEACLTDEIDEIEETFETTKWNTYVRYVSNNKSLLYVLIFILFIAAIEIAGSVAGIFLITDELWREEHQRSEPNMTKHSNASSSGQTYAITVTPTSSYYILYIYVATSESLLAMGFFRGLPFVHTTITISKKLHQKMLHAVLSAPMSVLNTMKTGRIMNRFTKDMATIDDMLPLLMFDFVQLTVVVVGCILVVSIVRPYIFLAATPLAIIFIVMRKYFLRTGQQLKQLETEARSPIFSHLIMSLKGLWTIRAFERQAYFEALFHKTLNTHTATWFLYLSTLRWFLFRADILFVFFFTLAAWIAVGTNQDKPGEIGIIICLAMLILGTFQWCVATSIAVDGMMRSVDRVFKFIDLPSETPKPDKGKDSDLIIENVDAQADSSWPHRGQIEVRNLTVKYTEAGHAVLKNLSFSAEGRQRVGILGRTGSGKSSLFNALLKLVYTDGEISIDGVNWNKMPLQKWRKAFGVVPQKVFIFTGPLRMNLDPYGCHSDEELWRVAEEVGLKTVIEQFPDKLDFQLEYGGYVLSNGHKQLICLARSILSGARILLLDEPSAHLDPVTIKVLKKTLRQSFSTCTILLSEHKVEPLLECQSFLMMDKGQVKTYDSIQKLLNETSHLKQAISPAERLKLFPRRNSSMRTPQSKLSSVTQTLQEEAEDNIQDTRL

[2] = molecular target: T2, WT-zCFTR (codon optimized zebrafish CFTR) (Danio rerio, UniProt Q1LX78); details: 10 μM inhibitor, PKA-phosphorylated channel, pH 7.4, 22-24 °C
T2 construct: full-length wild type, codon-optimized cDNA (from J. Chen), co-transfected with peGFP-C3 in CHO cells; PKA-phosphorylated in patches
T2 sequence (Q1LX78 1-1485): T1 sequence (Q1LX78 1-1485)

[3] = molecular target: T2, WT-zCFTR (codon optimized zebrafish CFTR); details: 50 μM P-ATP relative to 2 mM ATP, PKA-phosphorylated channel, pH 7.4

inhibition ratio at 10 μM [1]	inhibition ratio at 10 μM [2]	IP-ATP/IATP [3]	SMILES
0.30 ± 0.04	0.27 ± 0.03	–	O=C(O)c1ccc(/C=C2\SC(=S)N(c3cccc(C(F)(F)F)c3)C2=O)cc1 [CFTRinh-172]
–	–	0.88 ± 0.04	O=P(O)(O)OP(=O)(O)OP(=O)(O)OC[C@H]1O[C@@H](n2cnc3c(NCCc4ccccc4)ncnc32)[C@H](O)[C@@H]1O [N6‐Phenylethyl‐ATP]
